Counter-ions that a name gives are not always drawn.
How the values were obtained:
[1] = Two-chamber release test of model drugs from hydrogel laminate; format: physicochemical; conditions: for dye leakage through the laminate into the opposite chamber: absorbance at 550 nm and 630 nm in both chambers; for power law release exponent: release from hydrogel layers of the laminate into DI water, Fickian release
Source text: A two-chamber diffusion device was made using cast acrylic plates (McMaster Carr), and small magnetic stir bars and stir plates (VWR International) were used for stirring. For the diffusion tests, a 3cm×3 cm hydrogel, elastomer, or impermeable hydrogel laminate sample was placed between the chambers and screwed together tightly to prevent leakage from the chambers. A 5.0×10−4 M rhodamine B solution (Sigma-Aldrich R6626) was placed on one chamber while DI water was placed in the opposite chamber, and 1 mL aliquots were taken every 10 min and placed in a disposable cuvette. Absorbance was measured using a spectrophotometer (BioMate 3S, ThermoFischer Scientific) and converted to concentration using calibration curves of solutions with known concentrations. The setup for release experiments was identical except both chambers initially contained DI water with rhodamine B and green food dye (Fast green FCF, Sigma-Aldrich F7252) being released from the hydrogel. For rhodamine diffusion and release, a wavelength sweep was performed to determine the maximum absorbance, which occurred at 550 nm. The calibration curve was constructed by measuring absorbance of standard solutions in the 0-50×10−6 m range. For green food dye release, the maximum absorbance occurred at 630 nm. The calibration curve was constructed by measuring absorbance of standard solutions in the 0-200 ppm range.
Taking advantage of the impermeability of the hydrogel-elastomer laminate, the possibility of releasing different molecules from the two sides of the hydrogel sheets in the laminate was tested. Green food dye (Fast Green FCF, Sigma-Aldrich) and rhodamine B were used as model drugs and were loaded into the opposing two hydrogel sheets in the hydrogel-elastomer laminate structure. […] The concentrations of green food dye and rhodamine B in the solutions of both chambers were measured over time using absorbance measurements. […] Since the dyes used have absorbance maximums at different wavelengths (550 nm and 630 nm), it was possible to detect dye leakage through the impermeable hydrogel-elastomer laminate by monitoring the absorbance signals at the two wavelengths in both chambers.

[2] = test system: Escherichi coli strain expressing green fluorescent protein; assay: Bacterial adhesion testing; format: cell-based; conditions: 24 hour incubation; FIG. 4; streptomycin sulfate 0.1 wt %
Source text: The high robustness and stretchability of the hydrogel-elastomer laminates allows for proper functioning of the devices under stresses and deformations. […] In addition, the lubricious and highly hydrated hydrogel coating surfaces provided by the present invention are capable of improving protein adsorption, anticlotting and foreign-body reaction of the device as compared to an uncoated device. Moreover, the coating protocol of the present invention can be designed to include therapeutic agents in the hydrogel coating and/or to introduce hydrogel components with known biological responses such as PEG, hyaluronic acid, and zwitterionic groups.
An engineered Escherichi coli strain expressing green fluorescent protein was cultured in a 24-well plate above 8 mm round samples of latex, glass or swollen hydrogel laminate (PAAm-ALG and PAAm-CHI, as described previously). Streptomycin sulfate (Sigma-Aldrich S9137) was added to the two laminate formulations, at a final concentration of 0.1 wt %. After incubating at 37° C. for 24 h, the samples were removed, rinsed with PBS to remove free-floating bacteria, and imaged with a fluorescent microscope (Nikon Eclipse LV100ND).

power law release exponent [1]	SMILES	dye leakage through the laminate into the opposite chamber [1]	effect on antibacterial action of the hydrogel laminates [2]
0.5	CCN(CC)c1ccc2c(-c3ccccc3C(=O)O)c3ccc(=[N+](CC)CC)cc-3oc2c1 [rhodamine B]	vice versa	
	[H]/N=C(/N)N[C@H]1[C@H](O)[C@@H](O)[C@H](O[C@@H]2O[C@@H](C)[C@](O)(C=O)[C@H]2O[C@@H]2O[C@@H](CO)[C@H](O)[C@@H](O)[C@@H]2NC)[C@@H](N/C(N)=N\[H])[C@@H]1O [antibiotic, Streptomycin sulfate]		improve the antibacterial action
0.5	CCN(Cc1cccc(S(=O)(=O)[O-])c1)c1ccc(C(=C2C=CC(=[N+](CC)Cc3cccc(S(=O)(=O)[O-])c3)C=C2)c2ccc(O)cc2S(=O)(=O)[O-])cc1.[Na+].[Na+] [Green food dye, Fast Green FCF]	No green food dye was detected in the rhodamine chamber	

Source: US20190125934A1, “TOUGH HYDROGEL COATING AND METHOD OF MANUFACTURE” (Massachusetts Institute of Technology, priority 2017, published 2019)
